From US11203597B2, “Crystalline spirocyclic compound, a dosage form containing, a method for using in treatment of disease, and a method for recrystallizing” (Altavant Sciences GmbH, priority 2018, dated 2021)
≈ marks a conversion by molar mass, not a printed value. One block for each compound: values may come before it.

Columns and labels:
Format in all cases: physicochemical
[1] = Competitive slurry experiments in n-heptane (XRPD); settings: slurry in 10 volumes of n-heptane
Description: Competitive slurry experiments were performed to ascertain if Compound 1 samples of Form 1 and mixtures of Form 1 and Form 3 can be converted to Form 3. Pure Form 1 and Form 3 were also tested. First, 700 mg of Compound 1 were added in different ratios to 10 volumes of n-heptane and stirred for […] (Table 2). After 16 hours and four days, the samples were checked for polymorphic form by XRPD. […]

[2] = Solubility determination by HPLC
Description: Because of the small differences in solubilities, HPLC was used to measure the solubilities. The values were conformed to the shake-flask results. […] In alcohol, there was a difference in dissolution rate. This difference was not observed for aqueous solutions.

[3] = Stability of polymorph form by pH measurement when stirred in water
Description: Additional tests were performed to understand the differences between form 1 and 3. One of those tests was to check stability of polymorph form by pH measurement at several times when the different forms were stirred in water (Table 11). During the tests, any changes in polymorph form were checked.

[4] = Solubility of Compound 1 in organic solvents other than MTBE/n-heptane; settings: thermodynamic from solid
Description: Solubility and Form Measurement
The solubility of Compound 1 was evaluated in organic solvents other than MTBE/n-heptane mixtures. The form of the residual solids was examined by XRPD.

[5] = Competitive slurry of Form 1 and Form 3 in MTBE/n-heptane mixtures (XRPD)
Description: Compound 1 was also subjected to competitive slurry experiments between Compound 1, Form 1 and Compound 1, Form 3 in MTBE/n-heptane mixtures as summarized in Table 7 below.

Compound: CCOC(=O)[C@@H]1CC2(CCN(c3cc(O[C@H](c4ccc(Cl)cc4-c4ccccc4)C(F)(F)F)nc(N)n3)CC2)CN1 [ES928-59-2]
pH (2 hours) ([3]; 2 hours): 8.26 | pH (4 hours) ([3]; 4 hours): 7.75 | pH (7 hours) ([3]; 7 hours): 7.76

Compound: CCOC(=O)[C@@H]1CC2(CCN(c3cc(O[C@H](c4ccc(Cl)cc4-c4ccccc4)C(F)(F)F)nc(N)n3)CC2)CN1 [ES928-60-2]
XRPD 16 hours [1]: Mixture 1 | XRPD 4 days [1]: Form 3

Compound: CCOC(=O)[C@@H]1CC2(CCN(c3cc(O[C@H](c4ccc(Cl)cc4-c4ccccc4)C(F)(F)F)nc(N)n3)CC2)CN1 [Compound 1, (S)-ethyl 8-(2-amino-6-((R)-1-(5-chloro-[1,1′-biphenyl]-2-yl)-2,2,2-trifluoroethoxy)pyrimidin-4-yl)-2,8-diazaspiro[4.5]decane-3-carboxylate]
solubility ([4]; EA/n-heptane 1:1, 10 °C, organic solvent or mixture): 422 mg/mL (≈ 715 mM) | solubility ([4]; EA/n-heptane 1:3, 10 °C, organic solvent or mixture): 115 mg/mL (≈ 195 mM) | solubility ([4]; EtOH/n-heptane 1:1, 10 °C, organic solvent or mixture): 396 mg/mL (≈ 671 mM) | solubility ([4]; EtOH/n-heptane 1:3, 10 °C, organic solvent or mixture): 192 mg/mL (≈ 326 mM) | solubility ([4]; IPA, 10 °C, organic solvent or mixture): 79.6 mg/mL (≈ 135 mM) | solubility ([4]; IPA, 50 °C, organic solvent or mixture): > 518 mg/mL | solubility ([4]; MTBE, 10 °C, organic solvent or mixture): > 211 mg/mL | solubility ([4]; MTBE, 50 °C, organic solvent or mixture): > 615 mg/mL | solubility ([4]; acetone/n-heptane 1:1, 10 °C, organic solvent or mixture): > 589 mg/mL | solubility ([4]; acetone/n-heptane 1:3, 10 °C, organic solvent or mixture): 208 mg/mL (≈ 353 mM) | solubility ([4]; n-butanol, 10 °C, organic solvent or mixture): 268 mg/mL (≈ 455 mM) | solubility ([4]; n-butanol, 50 °C, organic solvent or mixture): > 758 mg/mL | solubility ([4]; n-heptane, 50 °C, organic solvent or mixture): 9.5 mg/mL (≈ 16.1 mM) | solubility ([4]; water, 50 °C): 1.2 mg/mL (≈ 2.03 mM) | XRPD (1~2 hours) ([5]; MTBE/n-heptane 1/1(v/v), 45 °C): Form 3 | XRPD (19 hours) ([5]; MTBE/n-heptane 1/1(v/v), 45 °C): Form 3 | XRPD (1~2 hours) ([5]; MTBE/n-heptane 1/4(v/v), 10 °C): Form 1 + | XRPD (65 hours) ([5]; MTBE/n-heptane 1/4(v/v), 10 °C): Form 3 | XRPD (1~2 hours) ([5]; MTBE/n-heptane 1/4(v/v), 45 °C): Form 1+ | XRPD (19 hours) ([5]; MTBE/n-heptane 1/4(v/v), 45 °C): Form 3 | XRPD (1~2 hours) ([5]; MTBE/n-heptane 1/5(v/v), 10 °C): Form 1 + | XRPD (65 hours) ([5]; MTBE/n-heptane 1/5(v/v), 10 °C): Form 3 | XRPD (1~2 hours) ([5]; MTBE/n-heptane 1/5(v/v), 45 °C): Form + | XRPD (65 hours) ([5]; MTBE/n-heptane 1/5(v/v), 45 °C): Form 3

More lines, now with the values ahead:

XRPD 16 hours [1]: Form 3 | XRPD 4 days [1]: Form 3
Compound: CCOC(=O)[C@@H]1CC2(CCN(c3cc(O[C@H](c4ccc(Cl)cc4-c4ccccc4)C(F)(F)F)nc(N)n3)CC2)CN1 [ES928-60-S]

solubility thermodynamic ([2]; buffer pH 1.2, pH 1.2, simulated gastric fluid, thermodynamic from solid, Buffer pH 1.2, read-out: Conc. Actual): 49 mg/mL (≈ 83 mM)
Compound: CCOC(=O)[C@@H]1CC2(CCN(c3cc(O[C@H](c4ccc(Cl)cc4-c4ccccc4)C(F)(F)F)nc(N)n3)CC2)CN1 [ES-928-62-1]

XRPD 16 hours [1]: Form 3 | XRPD 4 days [1]: Form 3
Compound: CCOC(=O)[C@@H]1CC2(CCN(c3cc(O[C@H](c4ccc(Cl)cc4-c4ccccc4)C(F)(F)F)nc(N)n3)CC2)CN1 [ES928-60-3]

Conc. Actual ([2]; Ethanol Abs.): 129000 µg/mL
Compound: CCOC(=O)[C@@H]1CC2(CCN(c3cc(O[C@H](c4ccc(Cl)cc4-c4ccccc4)C(F)(F)F)nc(N)n3)CC2)CN1 [EdA-928-63-1]

XRPD 16 hours [1]: Form 3 | XRPD 4 days [1]: Form 3
Compound: CCOC(=O)[C@@H]1CC2(CCN(c3cc(O[C@H](c4ccc(Cl)cc4-c4ccccc4)C(F)(F)F)nc(N)n3)CC2)CN1 [ES928-60-6]
